Here are results for nine cell lines from the supplement of paper PMC10307832.

Holding throughout (assay): relative viability (nuclei count vs DMSO), 5 days (fraction); higher = more cells survive
Compound in experiment [1]: NC1(c2ccc(-c3nc4ccn5c(=O)[nH]nc5c4cc3-c3ccccc3)cc2)CCC1 [MK-2206]
An outline of the steps: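 Nuclei counted with MetaXpress define viability as the ratio of treated to vehicle wells, given as a median across plates. The lung cancer cell lines were in 1536-well plates, pinned with five √10-spaced library-drug doses and imaged at 4× after 5 days and Hoechst staining. Plates passed with control CV below 25% and at least one doubling.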

Compound in experiment [2]: CS(=O)(=O)N1CCN(Cc2cc3nc(-c4cccc5[nH]ncc45)nc(N4CCOCC4)c3s2)CC1 [Pictilisib] + CC1(C)CCC(c2ccc(Cl)cc2)=C(CN2CCN(c3ccc(C(=O)NS(=O)(=O)c4ccc(N[C@H](CCN5CCOCC5)CSc5ccccc5)c(S(=O)(=O)C(F)(F)F)c4)cc3)CC2)C1 [Navitoclax] (partner 0.5 µM)
The method, boiled down: (§1)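 Lung cancer cell lines, seeded in 1536-well plates, were treated the following day by pin tool with a single drug or with five library-drug doses (not always all listed) in √10 steps on top of a fixed anchor-drug dose. Cells were fixed and nuclei stained in one step after 5 days, and nuclei were counted. Relative viability is the nuclei count for treated wells divided by that for vehicle wells, reported as medians of duplicate plates.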

Compound in experiment [3]: CS(=O)(=O)N1CCN(Cc2cc3nc(-c4cccc5[nH]ncc45)nc(N4CCOCC4)c3s2)CC1 [Pictilisib] + CCNC(=O)c1noc(-c2cc(C(C)C)c(O)cc2O)c1-c1ccc(CN2CCOCC2)cc1 [Luminespib] (partner 0.01 µM)
The method, boiled down:
as §1

Compound in experiment [4]: CS(=O)(=O)N1CCN(Cc2cc3nc(-c4cccc5[nH]ncc45)nc(N4CCOCC4)c3s2)CC1 [Pictilisib] + O=C(CCCCCCC(=O)Nc1ccccc1)NO [Vorinostat] (partner 1 µM)
An outline of the steps:
as §1

Compound in experiment [5]: NC1(c2ccc(-c3nc4ccn5c(=O)[nH]nc5c4cc3-c3ccccc3)cc2)CCC1 [MK-2206] + Nc1nc2[nH]cc(CCc3ccc(C(=O)N[C@@H](CCC(=O)O)C(=O)O)cc3)c2c(=O)[nH]1 [Pemetrexed] (partner 0.2 µM)
An outline of the steps:
as §1

In the case of NCI-H1651, the relative viability in experiment [1] (0.01 µM) was 0.949; in experiment [1] (0.03162 µM), 0.968; in experiment [1] (0.3162 µM), 1.03; in experiment [1] (1 µM) it was 0.937; in experiment [2] (first compound 0.02 µM), 1.02; in experiment [2] (first compound 0.06325 µM), 0.926. The relative viability in experiment [2] (first compound 0.6325 µM) was 0.9; in experiment [2] (first compound 2 µM), 0.53; in experiment [3] (first compound 0.02 µM) it was 0.841; in experiment [3] (first compound 0.06325 µM), 0.65; in experiment [3] (first compound 0.6325 µM), 0.889; in experiment [3] (first compound 2 µM), 0.473. Moreover, the relative viability in experiment [4] (first compound 0.02 µM) came to 0.519; in experiment [4] (first compound 0.06325 µM), 0.551; in experiment [4] (first compound 0.6325 µM), 0.538; in experiment [4] (first compound 2 µM) it was 0.344; in experiment [5] (first compound 0.01 µM), 0.562; in experiment [5] (first compound 0.03162 µM) it was 0.575. The relative viability in experiment [5] (first compound 0.3162 µM) was 0.621; in experiment [5] (first compound 1 µM), 0.513.

In the case of H3255, the relative viability in experiment [1] (0.01 µM) was 0.941; in experiment [1] (0.03162 µM) it was 1.01; in experiment [1] (0.3162 µM), 0.836; in experiment [1] (1 µM) it was 0.826; in experiment [2] (first compound 0.02 µM), 0.626; in experiment [2] (first compound 0.06325 µM), 0.516. Further, the relative viability in experiment [2] (first compound 0.6325 µM) was 0.498; in experiment [2] (first compound 2 µM), 0.173; in experiment [3] (first compound 0.02 µM), 0.922; in experiment [3] (first compound 0.06325 µM), 0.796; in experiment [3] (first compound 0.6325 µM), 0.688; in experiment [3] (first compound 2 µM), 0.666. Moreover, the relative viability in experiment [4] (first compound 0.02 µM) came to 0.813; in experiment [4] (first compound 0.06325 µM), 0.779; in experiment [4] (first compound 0.6325 µM), 0.788; in experiment [4] (first compound 2 µM), 0.414; in experiment [5] (first compound 0.01 µM), 0.557; in experiment [5] (first compound 0.03162 µM), 0.614. The relative viability in experiment [5] (first compound 0.3162 µM) amounted to 0.538; in experiment [5] (first compound 1 µM), 0.508.

Calu-6: the relative viability came to 1.02 in experiment [1] (0.01 µM); 1.06 in experiment [1] (0.03162 µM); 1.01 in experiment [1] (0.3162 µM); 0.962 in experiment [1] (1 µM); 0.911 in experiment [2] (first compound 0.02 µM); 0.855 in experiment [2] (first compound 0.06325 µM). Also, the relative viability amounted to 0.656 in experiment [2] (first compound 0.6325 µM) and 0.569 in experiment [2] (first compound 2 µM).

With SW 900, the relative viability came out at 0.862 in experiment [1] (0.01 µM); 0.731 in experiment [1] (0.03162 µM); 0.866 in experiment [1] (0.3162 µM); 0.629 in experiment [1] (1 µM); 0.183 in experiment [3] (first compound 0.02 µM); 0.15 in experiment [3] (first compound 0.06325 µM). For the same cell line, the relative viability came out at 0.163 in experiment [3] (first compound 0.6325 µM); 0.158 in experiment [3] (first compound 2 µM); 0.695 in experiment [4] (first compound 0.02 µM); 0.579 in experiment [4] (first compound 0.06325 µM); 0.382 in experiment [4] (first compound 0.6325 µM); 0.231 in experiment [4] (first compound 2 µM). The figures for the relative viability in experiment [5] (first compound 0.01 µM), in experiment [5] (first compound 0.3162 µM) and in experiment [5] (first compound 1 µM) were 0.494, 0.497 and 0.491, respectively.

Turning to NCI-H650, the relative viability amounted to 0.986 in experiment [1] (0.01 µM); 0.854 in experiment [1] (0.03162 µM); 0.97 in experiment [1] (0.3162 µM); 0.764 in experiment [1] (1 µM); 0.759 in experiment [3] (first compound 0.02 µM); 0.809 in experiment [3] (first compound 0.06325 µM). For the same cell line, the relative viability in experiment [3] (first compound 0.6325 µM) came to 0.802; in experiment [3] (first compound 2 µM), 0.483; in experiment [4] (first compound 0.02 µM) it was 0.533; in experiment [4] (first compound 0.06325 µM), 0.427; in experiment [4] (first compound 0.6325 µM), 0.378; in experiment [4] (first compound 2 µM), 0.164. Moreover, the relative viability was 0.979 in experiment [5] (first compound 0.01 µM), 0.913 in experiment [5] (first compound 0.03162 µM), 0.818 in experiment [5] (first compound 0.3162 µM) and 1.02 in experiment [5] (first compound 1 µM).

On to NCI-H460, for which the relative viability in experiment [1] (0.01 µM) worked out at 0.997; in experiment [1] (0.03162 µM), 1.03; in experiment [1] (0.3162 µM), 1.02; in experiment [1] (1 µM) it was 0.921; in experiment [2] (first compound 0.02 µM) it was 1.15; in experiment [2] (first compound 0.06325 µM), 1.07. The relative viability in experiment [2] (first compound 0.6325 µM) is 0.563; in experiment [2] (first compound 2 µM), 0.201; in experiment [3] (first compound 0.02 µM), 0.0289; in experiment [3] (first compound 0.06325 µM), 0.0281; in experiment [3] (first compound 0.6325 µM), 0.0266; in experiment [3] (first compound 2 µM), 0.019. In addition, the relative viability in experiment [4] (first compound 0.02 µM) is 0.796; in experiment [4] (first compound 0.06325 µM), 0.757; in experiment [4] (first compound 0.6325 µM) it was 0.842; in experiment [4] (first compound 2 µM) it was 0.155; in experiment [5] (first compound 0.01 µM) it was 0.0681; in experiment [5] (first compound 0.03162 µM) it was 0.0647. For the same cell line, the relative viability in experiment [5] (first compound 0.3162 µM) came out at 0.0757; in experiment [5] (first compound 1 µM) it was 0.0577.

As for HCC-366, the relative viability came out at 1.02 in experiment [1] (0.01 µM); 1.02 in experiment [1] (0.03162 µM); 0.978 in experiment [1] (0.3162 µM); 0.98 in experiment [1] (1 µM); 1.04 in experiment [2] (first compound 0.02 µM); 1.06 in experiment [2] (first compound 0.06325 µM). Moreover, the relative viability in experiment [2] (first compound 0.6325 µM) is 0.908; in experiment [2] (first compound 2 µM), 0.195; in experiment [4] (first compound 0.02 µM) it was 0.45; in experiment [4] (first compound 0.06325 µM) it was 0.368; in experiment [4] (first compound 0.6325 µM), 0.226; in experiment [4] (first compound 2 µM), 0.118. Further, the relative viability in experiment [5] (first compound 0.01 µM) was determined as 0.154; in experiment [5] (first compound 0.03162 µM), 0.166; in experiment [5] (first compound 0.3162 µM), 0.302; in experiment [5] (first compound 1 µM) it was 0.266.

For the cell line LCLC-103H, the relative viability in experiment [1] (0.01 µM) is 0.923; in experiment [1] (0.03162 µM) it was 0.984; in experiment [1] (0.3162 µM), 0.982; in experiment [1] (1 µM) it was 1.11; in experiment [3] (first compound 0.02 µM) it was 0.989; in experiment [3] (first compound 0.06325 µM), 0.903. For the same cell line, the relative viability in experiment [3] (first compound 0.6325 µM) stood at 0.606; in experiment [3] (first compound 2 µM), 0.438; in experiment [4] (first compound 0.02 µM), 0.84; in experiment [4] (first compound 0.06325 µM) it was 0.737; in experiment [4] (first compound 0.6325 µM), 0.634; in experiment [4] (first compound 2 µM), 0.469. Besides, the relative viability turned out to be 0.441 in experiment [5] (first compound 0.01 µM), 0.435 in experiment [5] (first compound 0.03162 µM), 0.485 in experiment [5] (first compound 0.3162 µM) and 0.442 in experiment [5] (first compound 1 µM).

For the cell line NCI-H2342, the relative viability in experiment [1] (0.01 µM) came to 1.05; in experiment [1] (0.03162 µM), 0.959; in experiment [1] (0.3162 µM), 0.892; in experiment [1] (1 µM) it was 0.815; in experiment [3] (first compound 0.02 µM) it was 0.669; in experiment [3] (first compound 0.06325 µM) it was 0.586. For the same cell line, the relative viability was found to be 0.588 in experiment [3] (first compound 0.6325 µM); 0.365 in experiment [3] (first compound 2 µM); 0.672 in experiment [4] (first compound 0.02 µM); 0.814 in experiment [4] (first compound 0.06325 µM); 0.695 in experiment [4] (first compound 0.6325 µM); 0.529 in experiment [4] (first compound 2 µM). The relative viability was determined as 0.663 in experiment [5] (first compound 0.01 µM), 0.782 in experiment [5] (first compound 0.03162 µM), 0.675 in experiment [5] (first compound 0.3162 µM) and 0.738 in experiment [5] (first compound 1 µM).
